Measured values as given in patent publication US12084403B2, “Linkers for antibody drug conjugates” (THE BOARD OF REGENTS OF THE UNIVERSITY OF TEXAS SYSTEM, priority 2017, dated 2024).
Starred links: 1 amine or outer side, 2 acyl side, 3 side chain; linkers in the order of their positions; H or OH if unused. Non-standard residues stand in square brackets, D forms with d. Residues, ends and D or L forms follow the SMILES beside them. *: point of attachment. EDDnp = O=[N+]([O-])c1ccc(NCCN*)c([N+](=O)[O-])c1; PABC = O=C(OCc1ccc(N[*:1])cc1)[*:2]; X1 = [N-]=[N+]=NCCOCCOCCOCC(=O)*; Cit = NC(=O)NCCC[C@H](N)C(=O)O; AEEEA = NCCOCCOCCOCC(=O)O

Key:
[1] = Plasma stability test using pyrene probes, BALB/c mouse plasma; type: in vitro ADME; settings: undiluted BALB/c mouse plasma, 37° C., HPLC
Protocol: To test this hypothesis, a panel of peptide probes containing a various amino acid at the P3 position were evaluated for plasma stability at the small-molecule level (FIG. 13B). VCit- and tripeptide probes 12a-f were first synthesized by standard solid- and liquid-phase peptide synthesis and following carbamate formation. These model probes consisted of a XVCit-PABC unit where X is none (12a), serine (12b), glutamic acid (12c), aspartic acid (12d), lysine (12e), or hydroxyacetylglycine (12f). It was assumed that serine and hydroxyacetylglycine would serve as a mimic of the hydroxy-functionalized tripeptide ADC linker with increased mouse plasma stability reported by Dorywalska et al (Dorywalska et al., 2016). In particular, the 2-hydroxyacetamide group within probe 12f is the modifier that provided the greatest stability in their report. These linkers were covalently linked to 1-pyrenemethylamine, a surrogate of hydrophobic payloads with distinct UV absorbance at 341 nm (van Geel et al., 2015). Subsequently, probes 12a-f were incubated in undiluted BALB/c plasma at 37° C. and the amount of each probe was monitored by HPLC (FIG. 13C). […] Taking into account that all probes tested were stable in human plasma and no significant degradation was observed after 2 days (FIG. 14A), the accelerated degradation observed in KVCit probe 12e may indicate that a basic side chain at the P3 position provides an additional interaction with Ces1c leading to fast bond cleavage. […] Thus, the stabilizing effect of a neutral carbonyl group at the P3 position was not as significant as that of a negatively charged carboxylic acid side chain.
Plasma stability test using pyrene probes. Each test compound (10 mM in DMSO, 2 μL) was mixed with 1 μL of 1-pyrenemethylamine (10 mM in DMSO, as an internal standard) and incubated at 37° C. for 10 min. Pooled healthy human plasma or BALB/c mouse plasma (197 μL, Innovative Research) was added to the mixture, followed by incubation at 37° C. Aliquots (10 μL) were collected at each time point (0, 1, 6, 24, 48, and 96 h) and 40 μL of cold acetonitrile containing 1% formic acid was added to precipitate proteins. Supernatant of each sample was obtained and analyzed for quantification by analytical HPLC as described above. All assays were performed at least three times in technical duplicate, and data shown are representative of the replicates.

human cathepsin B = human cathepsin B (Homo sapiens, UniProt P07858); assay: Cathepsin B-mediated cleavage of linear and branched probes in FRET assay; type: biochemical; settings: for Slope (RFU/sec): quencher (EdDnp) release rate, linear regression, triplicate; for release of EdDnp in the presence of human cathepsin B: result in words
Protocol: FIG. 2. Quencher release rate determination in Förster resonance energy transfer (FRET) assay. Each slope reflecting drug (quencher) release rate was calculated by linear regression using Graph Pad Prism 7 software. […] All assays were performed in triplicate and error bars represent SEM.
These model linker units consisted of cathepsin B-cleavable valine-citrulline (Val-Cit) with or without polyethyleneglycol (PEG) spacers. This dipeptide sequence has been used in many successful ADCs including the FDA-approved ADC Adcetris® (Katz et al., 2011). The sequence is stable in circulation but in lysosomes undergoes cathepsin B-mediated cleavage, resulting in intracellular release of payload (Dubowchik et al., 2002). Tryptophan and 2,4-dinitrophenylethylenediamine (EdDnp) were installed as a fluorophore/quencher(s) pair, which is commonly used in the Förster resonance energy transfer (FRET) assay. The release of EdDnp from each synthetic model linker unit in the presence of human cathepsin B (Table 1 and Scheme 3) was assessed. […] Without wishing to be bound by any theory, it is surmised that the structural congestion of branched probe 3 due to the lack of PEG spacers prevents cathepsin B accessing Val-Cit moieties.

Human liver cathepsin B = molecular target: T1, Human liver cathepsin B (Homo sapiens, UniProt P07858); assay: Cathepsin B-mediated cleavage assay using pyrene probes; type: biochemical; settings: 37° C., result in words
T1 construct: Human liver cathepsin B (20 ng/μL, 100 μL, EMD Millipore); purchased EMD Millipore; host or cells: human liver (tissue-derived, as the name says)
Protocol: Next, all probes were tested for responsiveness to human cathepsin B-mediated cleavage (FIG. 14B).
Cathepsin B-mediated cleavage assay using pyrene probes. Each test compound (10 mM in DMSO, 2 μL) was mixed with 97 μL of MES buffer (25 mM MES-Na, 1 mM DTT, pH 5.0) and 1 μL of 1-pyrenemethylamine (10 mM in DMSO, as an internal standard). The mixture was incubated at 37° C. for 10 min. Human liver cathepsin B (20 ng/μL, 100 μL, EMD Millipore) in MES buffer was added to the mixture, followed by incubation at 37° C. Aliquots (10 μL) were collected at each time point (0, 0.5, 1, 3, 24, and 48 h). Cold acetonitrile containing 1% formic acid (40 μL) was added to precipitate proteins. Precipitated proteins were separated by centrifugation (15,000 g, 4° C., 30 min) and supernatant of each sample was analyzed for quantification by analytical HPLC (UV absorption at 342 nm). The amount of each probe was normalized to the peak area of the internal standard. All assays were performed at least three times in technical duplicate, and data shown are representative of the replicates.

Compound	t1/2 [1]	Slope (RFU/sec) (human cathepsin B)	release of EdDnp in the presence of human cathepsin B (human cathepsin B)	human cathepsin B-mediated cleavage rate (Human liver cathepsin B)
Ac-Glu-Val-Cit-PABC-Sar-pyrene [probe 12c]	19.1 h	–	–	–
CC(=O)N[C@@H](Cc1c[nH]c2ccccc12)C(=O)N[C@@H](CCCCn1cc(CCC(=O)N[C@H](C(=O)N[C@@H](CCCNC(N)=O)C(=O)Nc2ccc(COC(=O)NCCNc3ccc([N+](=O)[O-])cc3[N+](=O)[O-])cc2)C(C)C)nn1)C(=O)N[C@H](C(=O)N[C@@H](CCCNC(N)=O)C(=O)Nc1ccc(COC(=O)NCCNc2ccc([N+](=O)[O-])cc2[N+](=O)[O-])cc1)C(C)C [probe 3]	–	0.03 ± 0.06 RFU/sec	marginal release of EdDnp	–
HOCH2CO-Gly-Val-Cit-PABC-Sar-pyrene [probe 12f]	5.0 h	–	–	–
Ac-Val-Cit-PABC-Sar-pyrene [probe 12a]	2.3 h	–	–	–
CC(=O)N[C@@H](Cc1c[nH]c2ccccc12)C(=O)N[C@@H](CCCCNC(=O)COCCOCCOCCN=[N+]=[N-])C(=O)NCCOCCOCCOCC(=O)N[C@H](C(=O)N[C@@H](CCCNC(N)=O)C(=O)Nc1ccc(COC(=O)NCCNc2ccc([N+](=O)[O-])cc2[N+](=O)[O-])cc1)C(C)C [probe 2, Ac-Trp-Lys(-PEG3-N3)-PEG3-Val-Cit-PABC-EdDnp] (Ac-WK(X1)[AEEEA]V[Cit][PABC]-EDDnp)	–	1.81 ± 0.07 RFU/sec	released EdDnp more efficiently than Linear PEG (−) 1	–
CC(=O)N[C@@H](Cc1c[nH]c2ccccc12)C(=O)N[C@@H](CCCCNC(=O)COCCOCCOCCn1cc(CCC(=O)N[C@H](C(=O)N[C@@H](CCCNC(N)=O)C(=O)Nc2ccc(COC(=O)NCCNc3ccc([N+](=O)[O-])cc3[N+](=O)[O-])cc2)C(C)C)nn1)C(=O)NCCOCCOCCOCC(=O)N[C@H](C(=O)N[C@@H](CCCNC(N)=O)C(=O)Nc1ccc(COC(=O)NCCNc2ccc([N+](=O)[O-])cc2[N+](=O)[O-])cc1)C(C)C [probe 4]	–	1.56 ± 0.05 RFU/sec	comparable to that of linear PEG (+) probe 2	–
Ac-Ser-Val-Cit-PABC-Sar-pyrene [probe 12b]	3.1 h	–	–	comparable with that of VCit probe 12a
Ac-Asp-Val-Cit-PABC-Sar-pyrene [probe 12d]	14.0 h	–	–	–
Ac-Lys-Val-Cit-PABC-Sar-pyrene [probe 12e]	0.9 h	–	–	–
